Measurements as given in the supplement of paper PMC10307832.

Tests used:
Assay in all cases: relative viability (nuclei count vs DMSO), 5 days (fraction); higher = more cells survive
[1] = compound: C1=CC=C2C(=C1)N=C(S2)C(C#N)C3=NC(=NC=C3)NCCC4=CN=CC=C4 + Nc1nc2[nH]cc(CCc3ccc(C(=O)N[C@@H](CCC(=O)O)C(=O)O)cc3)c2c(=O)[nH]1 [Pemetrexed] (partner 0.2 µM)
Method in brief: (§1)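 Lung cancer cell lines were pin-tool dosed in 1536-well plates on the day after seeding, with either a lone drug or a fixed anchor-drug dose plus five library-drug doses (not always all listed) in √10 steps. Nuclei were counted on 4× images after 5 days. Relative viability is the ratio of treated-well to vehicle-well nuclei counts, with each value a median of duplicate plates.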

NVP-TAE684 + Luminespib = compound: COc1cc(N2CCC(N3CCN(C)CC3)CC2)ccc1Nc1ncc(Cl)c(Nc2ccccc2S(=O)(=O)C(C)C)n1 [NVP-TAE684] + CCNC(=O)c1noc(-c2cc(C(C)C)c(O)cc2O)c1-c1ccc(CN2CCOCC2)cc1 [Luminespib] (partner 0.01 µM)
Method in brief: as §1

NVP-TAE684 + Pemetrexed = compound: COc1cc(N2CCC(N3CCN(C)CC3)CC2)ccc1Nc1ncc(Cl)c(Nc2ccccc2S(=O)(=O)C(C)C)n1 [NVP-TAE684] + Nc1nc2[nH]cc(CCc3ccc(C(=O)N[C@@H](CCC(=O)O)C(=O)O)cc3)c2c(=O)[nH]1 [Pemetrexed] (partner 0.2 µM)
Method in brief: as §1

Vandetanib + Linsitinib = compound: COc1cc2/c(=N/c3ccc(Br)cc3F)nc[nH]c2cc1OCC1CCN(C)CC1 [Vandetanib] + C[C@]1(O)C[C@@H](c2nc(-c3ccc4ccc(-c5ccccc5)nc4c3)c3c(N)nccn32)C1 [Linsitinib] (partner 1 µM)
Method in brief: as §1

[2] = compound: C1=CC=C2C(=C1)N=C(S2)C(C#N)C3=NC(=NC=C3)NCCC4=CN=CC=C4 + O=C(CCCCCCC(=O)Nc1ccccc1)NO [Vorinostat] (partner 1 µM)
Method in brief: as §1

## UMC-11
[1]; first compound 0.01581 µM
  relative viability: 0.79
[1]; first compound 0.05 µM
  relative viability: 0.769
[1]; first compound 0.1581 µM
  relative viability: 0.94
[1]; first compound 0.5 µM
  relative viability: 0.771
NVP-TAE684 + Luminespib; first compound 0.2 µM
  relative viability: 0.879
NVP-TAE684 + Luminespib; first compound 0.6325 µM
  relative viability: 0.946
NVP-TAE684 + Luminespib; first compound 2 µM
  relative viability: 0.297
NVP-TAE684 + Pemetrexed; first compound 0.2 µM
  relative viability: 0.736
NVP-TAE684 + Pemetrexed; first compound 0.6325 µM
  relative viability: 0.735
NVP-TAE684 + Pemetrexed; first compound 2 µM
  relative viability: 0.347
Vandetanib + Linsitinib; first compound 0.02 µM
  relative viability: 0.978
Vandetanib + Linsitinib; first compound 0.06325 µM
  relative viability: 0.994
Vandetanib + Linsitinib; first compound 0.2 µM
  relative viability: 0.97
Vandetanib + Linsitinib; first compound 0.6325 µM
  relative viability: 0.885
Vandetanib + Linsitinib; first compound 2 µM
  relative viability: 1
[2]; first compound 0.01581 µM
  relative viability: 0.36
[2]; first compound 0.05 µM
  relative viability: 0.402
[2]; first compound 0.1581 µM
  relative viability: 0.42
[2]; first compound 0.5 µM
  relative viability: 0.422
